Reference: PubChem BioAssay AID1996
Converted amounts (≈) assume the structure as drawn.

conditions: buffer; pH 7.4; 200.0 µM

| SMILES | solubility kinetic [µg/mL] |
| --- | --- |
| CCN(CC)C(=O)c1ccc(COc2ccc(Cl)c(C)c2)o1 | 10.7 (≈ 33.3 µM) |
| COc1cc2[nH]c(C(=O)N(C)Cc3ccccc3)cc2c(OC)c1OC | 35.7 (≈ 101 µM) |
| CCCCCc1c(O)nc(SCCN(C)C)[nH]c1=O.Cl | > 48.3 |
| CCOC(=O)c1[nH]cnc1C(=O)Nc1ccc(F)cc1 | 6.7 (≈ 24.2 µM) |
| COC(=O)C1=C(C)NC(=O)NC1c1c(O)ccc2ccccc12 (stereo not drawn) | 15.2 (≈ 48.7 µM) |
| COc1ccc(CN2C(=O)c3ccccc3C2=O)cc1 | 6 (≈ 22.4 µM) |
| CC(=O)SCC[N+](C)(C)C.[Cl-] | 29.4 |
| Cn1c(=O)[nH]c(=O)c2c1nc1n2CCS1 | 31 (≈ 138 µM) |
| COC(=O)c1c(N)sc(C(=O)NCCc2ccccc2)c1C | > 47.8 |
| Cc1ccc(/C=C/C(=O)Nc2cc(S(N)(=O)=O)ccc2O)cc1 | 42.2 (≈ 127 µM) |
| COc1ccccc1NC(=O)CC(=O)c1ccccc1 | > 40.4 |
| CCCN(CC1CC1)C(=O)COC(=O)c1ccc(C)cc1O | > 45.8 |
| CSc1ccccc1NC(=O)c1ccccc1 | 28.8 (≈ 118 µM) |
| O=C(NCC(c1ccco1)N1CCCCC1)c1cnc(Cl)c(Cl)c1 (stereo not drawn) | > 55.2 |
| O=C(Cc1ccc([N+](=O)[O-])cc1)Nc1ccc2c(c1)CCC2 | 0.6 (≈ 2.02 µM) |
| CCC(C)c1ccc(NC(=S)N2CCCC2)cc1 (stereo not drawn) | > 39.4 |
| CC(=O)Nc1nc(CC(C)C)cc(-c2ccccc2)c1C#N | > 44 |
| COc1ccc(CNC(=S)Nc2ccccc2F)cc1 | 34 (≈ 117 µM) |
| Cc1cccnc1NC(=O)NC(=O)c1ccc(C(C)(C)C)s1 | 9.1 (≈ 28.7 µM) |
| COc1cccc(Oc2ccc(S(=O)(=O)N3CCOCC3)cc2[N+](=O)[O-])c1 | 11 (≈ 27.9 µM) |
| CC1CCCCC12NC(=O)N(CC(=O)N1CCN(c3ccccc3)CC1)C2=O (stereo not drawn) | > 57.7 |
| Cn1c(=O)[nH]c2nc[nH]c2c1=O | > 24.9 |
| CC(=O)c1sc(NCc2ccccc2)nc1C | 31.8 (≈ 129 µM) |
| O=C(O)Cc1csc(-c2ccc(F)cc2)n1 | 32.2 (≈ 136 µM) |

| SMILES | solubility kinetic [µg/mL] |
| --- | --- |
| CC(Oc1ccc(Br)cc1Br)C(=O)Nc1cccnc1Cl (stereo not drawn) | < 0.5 |
| CCCCOc1ccc(-c2ncc([N+](=O)[O-])cn2)cc1 | < 0.2 |
| Cc1ncc([N+](=O)[O-])n1Cc1cccc(F)c1 | > 35.3 |
| C=CCn1c(=O)c2c(nc3n2CCCN3Cc2ccccc2)n(C)c1=O | 19.5 (≈ 55.5 µM) |
| Cc1cccc(C)c1N1C(=O)CN(Cc2ccccc2)C1=S | 27.8 (≈ 89.6 µM) |
| O=C(CSc1ncnc2ccccc12)NCC(=O)c1ccccc1 | 7.1 (≈ 21 µM) |
| Cc1noc(C)c1C(=O)OC(C)C(=O)NC(C)c1ccc(Cl)cc1Cl (stereo not drawn) | 10.6 (≈ 27.5 µM) |
| CC(C)(C)c1ccc(N2C(=N)SCC2=O)cc1 | 15.8 (≈ 63.6 µM) |
| Fc1ccc(-c2noc(-c3ccc4c(c3)CCO4)n2)cc1 | < 0.3 |
| CSCCCNC(=S)Nc1ccc(N2CCOCC2)cc1 | > 48.8 |
| O=C(c1cc([N+](=O)[O-])ccc1N1CCCC1)N1CCCCC1 | 25.9 (≈ 85.4 µM) |
| O=C(COC(=O)c1ccc(S(=O)(=O)N2CCOCC2)cc1)Nc1ccccc1OC(F)F | 4.8 (≈ 10.2 µM) |
| O=C(NCCOc1ccccc1F)c1cc([N+](=O)[O-])ccc1N1CCOCC1 | 55.5 (≈ 143 µM) |
| O=C(NCc1cccnc1)Nc1cc(Cl)cc(Cl)c1 | 15.2 (≈ 51.3 µM) |
| CC(C)C(NS(=O)(=O)c1ccccc1)C(=O)NC1CCCC1 (stereo not drawn) | > 48.7 |
| Cc1nc2ccccn2c1C(=O)CSc1ccccc1 | > 42.4 |
| O=C(CN1C(=O)NC2(CCCCCC2)C1=O)NCCc1ccccc1 | > 51.5 |
| CN(Cc1ccc(Cl)cc1)C(=O)c1ccc2ccccc2n1 | > 46.6 |
| C/C(=N\NC(=O)c1ccncc1)c1cccnc1 | > 36 |
| Cc1cc(NC(=O)CSc2nc(C)c(C)n2CC(C)C)no1 | > 48.4 |
| OCC1CCCCN1C(=S)NCc1ccco1 (stereo not drawn) | 32.1 (≈ 126 µM) |
| Cc1nn(CC(=O)NCCc2ccccc2)c(=O)c2cccn12 | > 46.6 |
| N#C/C(=C\c1cccnc1)C(=O)Nc1ccc(C(=O)O)cc1 | > 44 |
| O=C(c1cc(COc2ccc(F)cc2F)on1)N1CCOCC1 | > 48.6 |
